{"source": "patent US20170226120A1", "about": "“INHIBITORS OF HIF PROLYL HYDROXYLASE” (MERCK SHARP & DOHME CORP., priority 2014, published 2017)", "key": {"[1]": {"experiment": "Tissue PK profile in rat (liver and plasma drug level)", "format": "in vivo", "conditions": "10 mg/kg, 4 hours after PO dosing at 10 mpk, vehicle 0.5% MC; for concentration at 4 h: po; for Kp at 4 h: liver/plasma, read-out: liver/plasma ratio", "method": "The tissue PK profile of compounds described in this application were evaluated in rat. The tissue was harvested 4 hours after PO dosing at 10 mpk (vehicle: 0.5% MC; dose volume: 5 mL/Kg) and the drug level was determined. Shown in Table 1 are compound concentrations of selected examples in rat liver and plasma, as well as liver to plasma drug ratio."}, "human HIF-PHD2": {"target": "T1, human HIF-PHD2 (Homo sapiens, UniProt Q9GZT9)", "T1 construct": "FLAG-tagged full length PHD2 expressed in and purified from baculovirus-infected Sf9 cells; FLAG; made in house; host or cells: baculovirus-infected Sf9 cells", "T1 sequence (Q9GZT9 whole entry)": "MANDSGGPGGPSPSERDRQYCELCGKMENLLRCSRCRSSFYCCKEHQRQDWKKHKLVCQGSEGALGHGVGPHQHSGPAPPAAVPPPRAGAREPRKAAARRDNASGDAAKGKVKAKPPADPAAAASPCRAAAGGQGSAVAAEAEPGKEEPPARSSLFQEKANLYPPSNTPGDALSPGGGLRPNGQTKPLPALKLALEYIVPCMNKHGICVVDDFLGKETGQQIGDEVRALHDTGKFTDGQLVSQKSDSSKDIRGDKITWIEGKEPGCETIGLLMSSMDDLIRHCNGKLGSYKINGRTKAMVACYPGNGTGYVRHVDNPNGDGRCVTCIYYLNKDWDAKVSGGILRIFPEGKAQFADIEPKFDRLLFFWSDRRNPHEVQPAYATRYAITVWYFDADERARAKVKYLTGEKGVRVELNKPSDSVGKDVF", "experiment": "HIF-PHD2 inhibition, time resolved fluorescence assay of HIF-1α peptide hydroxylation", "format": "biochemical", "conditions": "FLAG-tagged full length PHD2; 0.2 μM 2-oxoglutarate, 0.5 μM HIF-1α peptide", "method": "To each well of a 384-well plate, 1 μL of test compounds in DMSO (final concentration ranging from 0.3 nM to 10 uM) were added into 20 μl of assay buffer (50 mM Tris pH 7.4/0.01% Tween-20/0.1 mg/ml bovine serum albumin/10 μM ferrous sulfate/1 mM sodium ascorbate/20 μg/ml catalase) containing 0.15 μg/ml FLAG-tagged full length PHD2 expressed in and purified from baculovirus-infected Sf9 cells. After a 5 min preincubation at room temperature, the enzymatic reactions were initiated by the addition of 4 μL of substrates {final concentrations of 0.2 μM 2-oxoglutarate and 0.5 μM HIF-1α peptide biotinyl-[…] […] After incubation for 45 minutes at room temperature, the reactions were terminated by the addition of a 25 μL quench/detection mix to a final concentration of 1 mM ortho-phenanthroline, 0.1 mM EDTA, 0.5 nM anti-(His)6 LANCE reagent (Perkin-Elmer Life Sciences), 100 nM AF647-labeled streptavidin (Invitrogen), and 2 μg/ml (His)6-VHL complex {S. Tan Protein Expr. Purif."}, "[2]": {"conditions": "liver, read-out: liver concentration"}, "[3]": {"conditions": "plasma, read-out: plasma concentration"}}, "note": "Like-named read-outs stand apart in the source and are kept apart here."}
{"smiles": "N#Cc1ccc(Cn2c3c(c(O)c(C(=O)NCC(=O)O)c2=O)COC3)cc1", "note": "[Example 6, 2-(1-(4-Cyanobenzyl)-4-hydroxy-2-oxo-1,2,5,7-tetrahydrofuro[3,4-b]pyridine-3-carboxamido)acetic acid]", "values": [{"measurement": "concentration at 4 h", "setting": "[1]; [2]", "value": 1820, "unit": "nM"}, {"measurement": "Kp at 4 h", "setting": "[1]", "value": 17.9}, {"measurement": "concentration at 4 h", "setting": "[1]; [3]", "value": 123, "unit": "nM"}, {"measurement": "IC50", "setting": "human HIF-PHD2", "value": 3.1, "unit": "nM"}]}
{"smiles": "N#Cc1ccc(-c2ccc(Cn3c4c(c(O)c(C(=O)NCC(=O)O)c3=O)COC4)cc2)cc1", "note": "[Example 24, 2-(1-((4′-cyano-[1,1′-biphenyl]-4-yl)methyl)-4-hydroxy-2-oxo-1,2,5,7-tetrahydrofuro[3,4-b]pyridine-3-carboxamido)acetic acid]", "values": [{"measurement": "concentration at 4 h", "setting": "[1]; [2]", "value": 642, "unit": "nM"}, {"measurement": "Kp at 4 h", "setting": "[1]", "value": 30.4}, {"measurement": "concentration at 4 h", "setting": "[1]; [3]", "value": 13.7, "unit": "nM"}, {"measurement": "IC50", "setting": "human HIF-PHD2", "value": 1.5, "unit": "nM"}]}
{"smiles": "Cc1cc(Cl)ccc1Cn1c2c(c(O)c(C(=O)NCC(=O)O)c1=O)COC2", "note": "[Example 42, 2-(1-(4-chloro-2-methylbenzyl)-4-hydroxy-2-oxo-1,2,5,7-tetrahydrofuro[3,4-b]pyridine-3-carboxamido)acetic acid]", "values": [{"measurement": "concentration at 4 h", "setting": "[1]; [2]", "value": 54200, "unit": "nM"}, {"measurement": "Kp at 4 h", "setting": "[1]", "value": 35.6}, {"measurement": "concentration at 4 h", "setting": "[1]; [3]", "value": 1520, "unit": "nM"}, {"measurement": "IC50", "setting": "human HIF-PHD2", "value": 4.1, "unit": "nM"}]}
{"smiles": "NC(=O)c1ccc(-c2ccc(Cn3c4c(c(O)c(C(=O)NCC(=O)O)c3=O)COC4)cc2)cc1", "note": "[Example 61, 2-(1-((4′-carbamoyl-[1,1′-biphenyl]-4-yl)methyl)-4-hydroxy-2-oxo-1,2,5,7-tetrahydrofuro[3,4-b]pyridine-3-carboxamido)acetic acid]", "values": [{"measurement": "concentration at 4 h", "setting": "[1]; [2]", "value": 25.8, "unit": "nM"}, {"measurement": "Kp at 4 h", "setting": "[1]", "value": 4.89}, {"measurement": "concentration at 4 h", "setting": "[1]; [3]", "value": 5.28, "unit": "nM"}, {"measurement": "IC50", "setting": "human HIF-PHD2", "value": 1.1, "unit": "nM"}]}
